Assay results as given in PubChem BioAssay (NCI).
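Values below derive from 48-hour exposures of cells grown in 96-well plates, with endpoints linearly interpolated between the two concentrations bracketing the appropriate inhibition level. TGI marks complete inhibition of growth.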

Tests used:
Test in all cases: NCI-60 cell line screen, 48 h
786-0 renal = test system: 786-0 renal
A498 renal = test system: A498 renal
A549 NSCLC = test system: A549 NSCLC
ACHN renal = test system: ACHN renal
BT-549 breast = test system: BT-549 breast
CAKI-1 renal = test system: CAKI-1 renal
CCRF-CEM leukemia = test system: CCRF-CEM leukemia
COLO 205 colon = test system: COLO 205 colon
DU-145 prostate = test system: DU-145 prostate
EKVX NSCLC = test system: EKVX NSCLC
HCC-2998 colon = test system: HCC-2998 colon
HCT-116 colon = test system: HCT-116 colon
HCT-15 colon = test system: HCT-15 colon
HL-60(TB) leukemia = test system: HL-60(TB) leukemia
HOP-62 NSCLC = test system: HOP-62 NSCLC
HOP-92 NSCLC = test system: HOP-92 NSCLC
HS 578T breast = test system: HS 578T breast
HT29 colon = test system: HT29 colon
IGROV1 ovarian = test system: IGROV1 ovarian
K-562 leukemia = test system: K-562 leukemia
KM12 colon = test system: KM12 colon
LOX IMVI melanoma = test system: LOX IMVI melanoma
M14 melanoma = test system: M14 melanoma
MALME-3M melanoma = test system: MALME-3M melanoma
MCF7 breast = test system: MCF7 breast
MDA-MB-231 breast = test system: MDA-MB-231 breast
MDA-MB-435 = test system: MDA-MB-435
MDA-N = test system: MDA-N
MOLT-4 leukemia = test system: MOLT-4 leukemia
NCI-H226 lung = test system: NCI-H226 lung
NCI-H23 lung = test system: NCI-H23 lung
NCI-H460 lung = test system: NCI-H460 lung
NCI-H522 lung = test system: NCI-H522 lung
NCI/ADR-RES ovarian = test system: NCI/ADR-RES ovarian
OVCAR-3 ovarian = test system: OVCAR-3 ovarian
OVCAR-4 ovarian = test system: OVCAR-4 ovarian
OVCAR-5 ovarian = test system: OVCAR-5 ovarian
OVCAR-8 ovarian = test system: OVCAR-8 ovarian
PC-3 prostate = test system: PC-3 prostate
RPMI-8226 leukemia = test system: RPMI-8226 leukemia
RXF 393 renal = test system: RXF 393 renal
SF-268 CNS = test system: SF-268 CNS
SF-295 CNS = test system: SF-295 CNS
SF-539 CNS = test system: SF-539 CNS
SK-MEL-2 melanoma = test system: SK-MEL-2 melanoma
SK-MEL-28 melanoma = test system: SK-MEL-28 melanoma
SK-MEL-5 melanoma = test system: SK-MEL-5 melanoma
SK-OV-3 ovarian = test system: SK-OV-3 ovarian
SN12C renal = test system: SN12C renal
SNB-19 CNS = test system: SNB-19 CNS
SNB-75 CNS = test system: SNB-75 CNS
SR leukemia = test system: SR leukemia
SW-620 colon = test system: SW-620 colon
T-47D breast = test system: T-47D breast
TK-10 renal = test system: TK-10 renal
U251 CNS = test system: U251 CNS
UACC-257 melanoma = test system: UACC-257 melanoma
UACC-62 melanoma = test system: UACC-62 melanoma
UO-31 renal = test system: UO-31 renal

`CCCCCCCCCc1cc(O)c(O)cc1CCCCCCCCC` gave a TGI (786-0 renal) of over 10 µM, a TGI (A498 renal) of over 10 µM and a TGI (A549 NSCLC) of over 10 µM. It also gave a TGI (ACHN renal) of over 10 µM, a TGI (BT-549 breast) of over 10 µM and a TGI (CAKI-1 renal) of over 10 µM. For the same molecule, the TGI (CCRF-CEM leukemia) was over 10 µM, the TGI (COLO 205 colon) was over 10 µM and the TGI (DU-145 prostate) was over 10 µM. For the same molecule, the TGI (EKVX NSCLC) was over 10 µM, the TGI (HCC-2998 colon) was over 10 µM and the TGI (HCT-116 colon) was over 10 µM. It also gave a TGI (HCT-15 colon) of over 10 µM, a TGI (HL-60(TB) leukemia) of over 10 µM and a TGI (HOP-62 NSCLC) of over 10 µM. The TGI (HOP-92 NSCLC) was over 10 µM, the TGI (HS 578T breast) was over 10 µM and the TGI (HT29 colon) was over 10 µM. For the same molecule, the TGI (IGROV1 ovarian) was over 10 µM, the TGI (K-562 leukemia) was over 10 µM and the TGI (KM12 colon) was over 10 µM. For the same molecule, the TGI (LOX IMVI melanoma) was over 10 µM, the TGI (M14 melanoma) was over 10 µM and the TGI (MALME-3M melanoma) was over 10 µM. For the same molecule, the TGI (MCF7 breast) was over 10 µM, the TGI (MDA-MB-231 breast) was over 10 µM and the TGI (MDA-MB-435) was over 10 µM. For the same molecule, the TGI (MDA-N) was over 10 µM, the TGI (MOLT-4 leukemia) was over 10 µM and the TGI (NCI-H226 lung) was over 10 µM. For the same molecule, the TGI (NCI-H23 lung) was over 10 µM, the TGI (NCI-H460 lung) was over 10 µM and the TGI (NCI-H522 lung) was over 10 µM. For the same molecule, the TGI (NCI/ADR-RES ovarian) was over 10 µM, the TGI (OVCAR-3 ovarian) was over 10 µM and the TGI (OVCAR-4 ovarian) was over 10 µM. It also gave a TGI (OVCAR-5 ovarian) of over 10 µM, a TGI (OVCAR-8 ovarian) of over 10 µM and a TGI (PC-3 prostate) of over 10 µM. For the same molecule, the TGI (RPMI-8226 leukemia) was over 10 µM, the TGI (RXF 393 renal) was over 10 µM and the TGI (SF-268 CNS) was over 10 µM. For the same molecule, the TGI (SF-295 CNS) was over 10 µM, the TGI (SF-539 CNS) was over 10 µM and the TGI (SK-MEL-2 melanoma) was over 10 µM. It also gave a TGI (SK-MEL-28 melanoma) of over 10 µM, a TGI (SK-MEL-5 melanoma) of over 10 µM and a TGI (SK-OV-3 ovarian) of over 10 µM. It also gave a TGI (SN12C renal) of over 10 µM, a TGI (SNB-19 CNS) of over 10 µM and a TGI (SNB-75 CNS) of over 10 µM. The TGI (SR leukemia) was over 10 µM, the TGI (SW-620 colon) was over 10 µM and the TGI (T-47D breast) was over 10 µM. It also gave a TGI (TK-10 renal) of over 10 µM, a TGI (U251 CNS) of over 10 µM and a TGI (UACC-257 melanoma) of over 10 µM. It also gave a TGI (UACC-62 melanoma) of over 10 µM and a TGI (UO-31 renal) of over 10 µM.

In the case of `CCN(CC)CCN1c2ccccc2Sc2ccc3ccccc3c21`, the TGI (786-0 renal) is reported as 23.9 µM, the TGI (A498 renal) is reported as 24.7 µM and the TGI (A549 NSCLC) is reported as 27.8 µM. The TGI (ACHN renal) was 29.2 µM, the TGI (BT-549 breast) was 29.9 µM and the TGI (CAKI-1 renal) was 22.7 µM. It also gave a TGI (CCRF-CEM leukemia) of 15 µM, a TGI (COLO 205 colon) of 15.9 µM and a TGI (DU-145 prostate) of 12.3 µM. For the same molecule, the TGI (EKVX NSCLC) was 20.1 µM, the TGI (HCC-2998 colon) was 6.86 µM and the TGI (HCT-116 colon) was 22.9 µM. The TGI (HCT-15 colon) was 22.1 µM, the TGI (HL-60(TB) leukemia) was 15.1 µM and the TGI (HOP-62 NSCLC) was 29 µM. For the same molecule, the TGI (HOP-92 NSCLC) was 12.8 µM, the TGI (HS 578T breast) was 32.6 µM and the TGI (HT29 colon) was 12.3 µM. It also gave a TGI (IGROV1 ovarian) of 24.5 µM, a TGI (K-562 leukemia) of 15.7 µM and a TGI (KM12 colon) of 19.7 µM. For the same molecule, the TGI (LOX IMVI melanoma) was 21.4 µM, the TGI (M14 melanoma) was 8.52 µM and the TGI (MALME-3M melanoma) was 32.5 µM. The TGI (MCF7 breast) was 23.6 µM, the TGI (MDA-MB-231 breast) was 18.3 µM and the TGI (MDA-MB-435) was 21.2 µM. For the same molecule, the TGI (MDA-N) was 25.3 µM, the TGI (MOLT-4 leukemia) was 7.66 µM and the TGI (NCI-H226 lung) was 19.1 µM. It also gave a TGI (NCI-H23 lung) of 31.9 µM, a TGI (NCI-H460 lung) of 6.42 µM and a TGI (NCI-H522 lung) of 27.9 µM. The TGI (NCI/ADR-RES ovarian) was 25.6 µM, the TGI (OVCAR-3 ovarian) was 24.6 µM and the TGI (OVCAR-4 ovarian) was 17 µM. The TGI (OVCAR-5 ovarian) was 23 µM, the TGI (OVCAR-8 ovarian) was 26.8 µM and the TGI (PC-3 prostate) was 19.5 µM. It also gave a TGI (RPMI-8226 leukemia) of 10.7 µM, a TGI (RXF 393 renal) of 9.5 µM and a TGI (SF-268 CNS) of 35.1 µM. It also gave a TGI (SF-295 CNS) of 26.4 µM, a TGI (SF-539 CNS) of 29.7 µM and a TGI (SK-MEL-2 melanoma) of 27.9 µM. It also gave a TGI (SK-MEL-28 melanoma) of 20.2 µM, a TGI (SK-MEL-5 melanoma) of 10.2 µM and a TGI (SK-OV-3 ovarian) of 29.4 µM. It also gave a TGI (SN12C renal) of 24.4 µM, a TGI (SNB-19 CNS) of 29.6 µM and a TGI (SNB-75 CNS) of 19.9 µM. For the same molecule, the TGI (SR leukemia) was 20.9 µM, the TGI (SW-620 colon) was 24.4 µM and the TGI (T-47D breast) was 19.1 µM. The TGI (TK-10 renal) was 23.9 µM, the TGI (U251 CNS) was 22.5 µM and the TGI (UACC-257 melanoma) was 21.5 µM. For the same molecule, the TGI (UACC-62 melanoma) was 22 µM and the TGI (UO-31 renal) was 19.1 µM.
